Assay results published in EP0450065A1, “ANTIVIRAL AGENT” (priority 1988, dated 1990).
Where two headings read alike, the source gives them in different places.

Key:
Type in all cases: cell-based
[1] = system: herpes simplex virus type 2 (169 strain); experiment: Control of CPE (cytopathic effect) manifestation in vero cells; design: key to Cytopathic effect [CPE] (3days) Average / Cytopathic effect [CPE] (5days) Average / Cytopathic effect [CPE] (6days) Average: CPE score 0-3: 3 = ≥75% cells, 2 = 50%, 1 = 25%, 0 = none; conditions: 100 μg/ml, HSV-2 (169)
Protocol: (§1) Vero cells cultured and grown in a monolayer on microplates to test for cytopathic effect due to viral infection, with solutions of Compound A diluted to varying ratios and solutions of virus diluted to varying ratios added severally thereto in a volume of 0.1 ml, were cultured under the conditions of 5% CO₂ and 37°C and were examined for CPE manifestation under a microscope. The observation was continued for five to six days.
(§2) The degree of CPE brought about by viral infection was rated on the five-point scale, wherein 3 stands for CPE observed on not less than 75% of cultured cells, 2 for CPE observed on 50% of cultured cells, 1 for CPE observed on 25% of cultured cells, 0.5 for occurrence of one to two extremely minute DPE spots, and 0 for perfect absence of recognizable CPE. The CPE scores obtained at the four holes in each microplate were averaged and the difference of the average from the average obtained in the control (omitting the treatment with a chemical) was reported as ΔCPE.
(§3) In vitro antiviral activity of Compound A against herpes simplex virus type 2 (169 strain) The test was carried out by following the procedure of Example 3.

[2] = system: herpes simplex virus type 1 (KOS strain); experiment: One-step growth of virus, plaque assay with vero cells; conditions: 100 μg/ml, 24 hours; for inhibition at 100 µg/mL / log reduction at 100 µg/mL: Human alphaherpesvirus 1, Vero, 24 h; for inhibition at 100 µg/mL: read-out: Intracellular virus Control ratio %; for log reduction at 100 µg/mL: read-out: Intracellular virus Control ratio -logT/C
Protocol: Antiviral activity of Compound A and Compound B against one-step growth of herpes simplex virus type 1 (KOS strain) Cells grown in a monolayer, with a sample of a given compound diluted in a varying ratio added, were pretreated for 15 minutes. Then, the pretreated cells were infected with the herpes simplex virus type 1 (KOS strain) at an infecting ratio of 0.25 and left standing for 24 hours. At the end of the standing, the intracellular and extracellular amounts of virus were determined by the plaque assay with vero cells.

[3] = system: herpes simplex virus type 1 (KOS strain); experiment: Control of CPE (cytopathic effect) manifestation in vero cells; conditions: 100 μg/ml, HSV-1 (KOS), Example 7
Protocol: as §1, §2
(§4) Antiviral activity of Compound A and Compound B against herpes simplex virus type 1 (KOS strain) The test was carried out by following the procedure of Example 3.

[4] = system: herpes simplex virus type 1 (HF strain); experiment: 50% Tissue culture infective dose (TCID50), Read-Munch method, negative logarithm of virus dilution
Protocol: In vitro antiviral activity of Compound A against herpes simplex virus type 1 (HF strain) Compound A was tested for antiviral effect by the following two methods.
(§5) The amount of virus infecting 50% of tissues (TCID₅₀) was determined by the Read-Munch method and expressed in negative logarithm of the maximum radio of dilution of virus. The difference of the amount thus determined from the amount found in the control (omitting the treatment with a chemical) was reported as ΔTCID₅₀. A sample whose ΔCPE's found on the last day of observation and on each of the days spent for the observation exceeded 1.0 was evaluated as effective.
In vitro antiviral effect of Compound A against herpes simplex virus type 1 (HF strain) The test was carried out by following the procedure of Example 3.

[5] = system: herpes simplex virus type 1 (KOS strain); experiment: as above; design: key to Cytopathic effect [CPE] (5days) TCID50 / Cytopathic effect [CPE] (3days) TCID50: TCID50 as negative log of maximum virus dilution ratio
Protocol: as §5, §4

[6] = system: herpes simplex virus type 2 (169 strain); experiment: as above; design: key to Cytopathic effect [CPE] (5days) TCID50 / Cytopathic effect [CPE] (3days) TCID50 / Cytopathic effect [CPE] (6days) TCID50: negative log of maximum virus dilution infecting 50% of tissues; conditions: HSV-2 (169); for log reduction at 100 µg/mL: difference from control
Protocol: as §5, §3

[7] = Example 4, difference from control
[8] = Example 6, difference from control
[9] = 100 μg/ml, HSV-1 (HF strain), Example 5
[10] = 100 μg/ml, HSV-1 (HF), Example 3
[11] = 100 μg/ml, HSV-1 (KOS), Example 7

## Nc1nc2c(ncn2COCCO)c(=O)[nH]1 [ACV, acyclovir, reference compound]
[1]; Example 4
  Cytopathic effect [CPE] (3days) Average: 0
  Cytopathic effect [CPE] (5days) Average: 0
[1]; [7]
  Cytopathic effect [CPE] (3days) △CPE: 1.5
  Cytopathic effect [CPE] (5days) △CPE: 3.05
[1]; Example 6
  Cytopathic effect [CPE] (3days) Average: 0
  Cytopathic effect [CPE] (6days) Average: 0
[1]; [8]
  Cytopathic effect [CPE] (3days) △CPE: > 2.5
  Cytopathic effect [CPE] (6days) △CPE: 3.0
[2]
  Intracellular virus Average: 8.50×10^2 /dish
  inhibition at 100 µg/mL: > 99.9%
  log reduction at 100 µg/mL: 5.68
[2]; extracellular virus
  inhibition at 100 µg/mL: > 99.9%
  log reduction at 100 µg/mL: 5.78
[3]
  Cytopathic effect [CPE] (3days) Average: 0
  Cytopathic effect [CPE] (5days) Average: 0
[3]; difference from control
  Cytopathic effect [CPE] (3days) △CPE: 2.0
  Cytopathic effect [CPE] (5days) △CPE: 3.0
[4]; [9]
  Cytopathic effect [CPE] (3days) TCID50: 5.5
  Cytopathic effect [CPE] (6days) TCID50: 4.3
[4]; [10]
  Cytopathic effect [CPE] (3days) TCID50: 3.5
  Cytopathic effect [CPE] (5days) TCID50: 3.5
[4]; Human alphaherpesvirus 1, 72 h, read-out: Cytopathic effect [CPE] (3days) ΔTCID50
  log reduction at 100 µg/mL: 0.8
[4]; Human alphaherpesvirus 1, 72 h, 100 μg/ml, HSV-1 (HF), Example 3, difference from control, read-out: Cytopathic effect [CPE] (3days) △TCID50
  log reduction at 100 µg/mL: 2.5
[4]; Human alphaherpesvirus 1, 120 h, 100 μg/ml, HSV-1 (HF), Example 3, difference from control, read-out: Cytopathic effect [CPE] (5days) △TCID50
  log reduction at 100 µg/mL: 2.5
[4]; Human alphaherpesvirus 1, 144 h, read-out: Cytopathic effect [CPE] (6days) ΔTCID50
  log reduction at 100 µg/mL: 2
[5]; [11]
  Cytopathic effect [CPE] (3days) TCID50: 3.5
  Cytopathic effect [CPE] (5days) TCID50: 3.5
[5]; Human alphaherpesvirus 1, 72 h, read-out: Cytopathic effect [CPE] (3days) △TCID50
  log reduction at 100 µg/mL: 2
[5]; Human alphaherpesvirus 1, 120 h, read-out: Cytopathic effect [CPE] (5days) △TCID50
  log reduction at 100 µg/mL: 2.5
[6]; 100 μg/ml, Example 4
  Cytopathic effect [CPE] (3days) TCID50: 3.5
  Cytopathic effect [CPE] (5days) TCID50: 3.5
[6]; 100 μg/ml, Example 6
  Cytopathic effect [CPE] (3days) TCID50: < 3.5
  Cytopathic effect [CPE] (6days) TCID50: 3.5
[6]; Human alphaherpesvirus 2, 72 h, read-out: Cytopathic effect [CPE] (3days) △TCID50, 100 μg/ml, Example 4
  log reduction at 100 µg/mL: 3
[6]; Human alphaherpesvirus 2, 72 h, read-out: Cytopathic effect [CPE] (3days) △TCID50, 100 μg/ml, Example 6
  log reduction at 100 µg/mL: > 3.2
[6]; Human alphaherpesvirus 2, 120 h, read-out: Cytopathic effect [CPE] (5days) △TCID50, 100 μg/ml, Example 4
  log reduction at 100 µg/mL: 3
[6]; Human alphaherpesvirus 2, 144 h, read-out: Cytopathic effect [CPE] (6days) △TCID50, 100 μg/ml, Example 6
  log reduction at 100 µg/mL: 3.2
